Source: ChEMBL document CHEMBL1909294, “Translating clinical findings into knowledge in drug safety evaluation--drug induced liver injury prediction system (DILIps)” (PLoS Comput Biol, 2011)

Tests used:
[1] = system: Hepatotoxicity;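 as to HepSE cholecystitis: Cholecystitis-related hepatic side effect score drawn from the DILIps (drug-induced liver injury prediction) training data set; call rule not given here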;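 as to HepSE cirrhosis: cirrhosis hepatic side effect score taken from the DILIps (drug-induced liver injury prediction) training set; call rule not given here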;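 as to HepSE elevated liver function tests: hepatic side effect score for raised liver function tests, as recorded in the DILIps training set used for predicting drug-induced liver injury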;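 as to HepSE hepatitis: Hepatitis-related hepatic side effect score taken from the training data of DILIps, a prediction system for drug-induced liver injury; call rule not given here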;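 as to HepSE hepatomegaly: hepatic side effect score for hepatomegaly, taken from the training set of the DILIps drug-induced liver injury prediction system; call rule not given here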; as to HepSE liver disease: call rule not given here;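 as to HepSE liver function tests abnormal: hepatic side effect score taken from the DILIps (drug-induced liver injury prediction system) training data, here covering abnormal liver function test findings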
[2] = system: Hepatotoxicity; remark: listed apart in the source;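 as to HepSE cholecystitis: Cholecystitis-related hepatic side effect score drawn from the DILIps (drug-induced liver injury prediction) training data set; call rule not given here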;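 as to HepSE cirrhosis: cirrhosis hepatic side effect score taken from the DILIps (drug-induced liver injury prediction) training set; call rule not given here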;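 as to HepSE hepatitis: Hepatitis-related hepatic side effect score taken from the training data of DILIps, a prediction system for drug-induced liver injury; call rule not given here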;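 as to HepSE hepatomegaly: hepatic side effect score for hepatomegaly, taken from the training set of the DILIps drug-induced liver injury prediction system; call rule not given here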; as to HepSE liver disease: call rule not given here;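 as to HepSE liver function tests abnormal: hepatic side effect score taken from the DILIps (drug-induced liver injury prediction system) training data, here covering abnormal liver function test findings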
[3] = system: Hepatotoxicity; remark: listed apart in the source;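 as to HepSE cholecystitis: Cholecystitis-related hepatic side effect score drawn from the DILIps (drug-induced liver injury prediction) training data set; call rule not given here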;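 as to HepSE cirrhosis: cirrhosis hepatic side effect score taken from the DILIps (drug-induced liver injury prediction) training set; call rule not given here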;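 as to HepSE hepatitis: Hepatitis-related hepatic side effect score taken from the training data of DILIps, a prediction system for drug-induced liver injury; call rule not given here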;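 as to HepSE hepatomegaly: hepatic side effect score for hepatomegaly, taken from the training set of the DILIps drug-induced liver injury prediction system; call rule not given here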; as to HepSE liver disease: call rule not given here;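 as to HepSE liver function tests abnormal: hepatic side effect score taken from the DILIps (drug-induced liver injury prediction system) training data, here covering abnormal liver function test findings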
[4] = system: Hepatotoxicity; remark: listed apart in the source;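 as to HepSE cholecystitis: Cholecystitis-related hepatic side effect score drawn from the DILIps (drug-induced liver injury prediction) training data set; call rule not given here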;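 as to HepSE cirrhosis: cirrhosis hepatic side effect score taken from the DILIps (drug-induced liver injury prediction) training set; call rule not given here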;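 as to HepSE hepatitis: Hepatitis-related hepatic side effect score taken from the training data of DILIps, a prediction system for drug-induced liver injury; call rule not given here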;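 as to HepSE hepatomegaly: hepatic side effect score for hepatomegaly, taken from the training set of the DILIps drug-induced liver injury prediction system; call rule not given here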; as to HepSE liver disease: call rule not given here;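 as to HepSE liver function tests abnormal: hepatic side effect score taken from the DILIps (drug-induced liver injury prediction system) training data, here covering abnormal liver function test findings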
[5] = system: Hepatotoxicity; remark: listed apart in the source; as to HepSE liver disease: call rule not given here
[6] = system: Hepatotoxicity; remark: listed apart in the source; as to HepSE liver disease: call rule not given here
[7] = system: Hepatotoxicity; remark: listed apart in the source
[8] = system: Hepatotoxicity; remark: listed apart in the source
[9] = system: Hepatotoxicity; remark: listed apart in the source
[10] = system: Hepatotoxicity; remark: listed apart in the source
[11] = system: Hepatotoxicity; remark: listed apart in the source
[12] = system: Hepatotoxicity; remark: listed apart in the source
[13] = system: Hepatotoxicity; remark: listed apart in the source
[14] = system: Hepatotoxicity; remark: listed apart in the source

Compound	HepSE_liver function tests abnormal [1]	HepSE_hepatitis [2]	HepSE_hepatomegaly [3]	HepSE_cholecystitis [4]	HepSE_cirrhosis [5]	HepSE_liver disease [6]	HepSE_elevated liver function tests [7]	HepSE_hepatic necrosis [8]	HepSE_Combined Scores [9]	HepSE_bilirubinemia [10]	HepSE_liver fatty [11]	HepSE_hepatic failure [12]	HepSE_cholelithiasis [13]	HepSE_jaundice [14]	further results
COLESTIPOL	0	0	0	1	0	0	0	0	2	0	0	0	1	0	
OCCN1CCN(CCCN2c3ccccc3Sc3ccc(C(F)(F)F)cc32)CC1 [FLUPHENAZINE]	0	1	0	0	0	0	0	0	2	0	0	0	0	1	
CCOC(=O)C1=C(COCCN)NC(C)=C(C(=O)OC)C1c1ccccc1Cl (stereo not drawn) [AMLODIPINE]	0	1	0	0	0	0	0	0	2	0	0	0	0	1	
C[C@@H](O)C(=O)O [D-LACTIC ACID]	0	0	0	0	0	0	0	0	0	0	0	0	0	0	
OCCN1CCN(CCCN2c3ccccc3Sc3ccc(Cl)cc32)CC1 [PERPHENAZINE]	0	0	0	0	0	0	0	0	1	0	0	0	0	1	
O=C(O)CN(CCN(CC(=O)O)CC(=O)O)CC(=O)O [EDETIC ACID]															HepSE_liver function tests abnormal ([1]; Liver): 0; HepSE_hepatitis ([2]; Liver): 0; HepSE_hepatomegaly ([3]; Liver): 0; HepSE_cholecystitis ([4]; Liver): 0; HepSE_cirrhosis ([5]; Liver): 0; HepSE_liver disease ([6]; Liver): 0; HepSE_elevated liver function tests ([7]; Liver): 0; HepSE_hepatic necrosis ([8]; Liver): 0; HepSE_Combined Scores ([9]; Liver): 0; HepSE_bilirubinemia ([10]; Liver): 0; HepSE_liver fatty ([11]; Liver): 0; HepSE_hepatic failure ([12]; Liver): 0; HepSE_cholelithiasis ([13]; Liver): 0; HepSE_jaundice ([14]; Liver): 0
Cc1nc(Nc2ncc(C(=O)Nc3c(C)cccc3Cl)s2)cc(N2CCN(CCO)CC2)n1.O [DASATINIB]	1	1	0	1	0	0	0	0	3	0	0	0	0	0	
CC(C)/N=c1\cc2n(-c3ccc(Cl)cc3)c3ccccc3nc-2cc1Nc1ccc(Cl)cc1 [CLOFAZIMINE]	0	1	1	0	0	0	0	0	3	0	0	0	0	1	
C[C@@H]1C[C@H]2[C@@H]3CCC4=CC(=O)C=C[C@]4(C)[C@@]3(F)[C@@H](O)C[C@]2(C)[C@H]1C(=O)CO [DESOXIMETASONE]	0	0	0	0	0	0	0	0	0	0	0	0	0	0	
CCN(C(C)=O)c1cccc(-c2ccnc3c(C#N)cnn23)c1 [ZALEPLON]	1	0	0	0	0	0	0	0	3	1	0	0	1	0	
CC(=O)O.CCNC(=O)[C@@H]1CCCN1C(=O)[C@H](CCCNC(=N)N)NC(=O)[C@H](CC(C)C)NC(=O)[C@@H](CC(C)C)NC(=O)[C@H](Cc1ccc(O)cc1)NC(=O)[C@H](CO)NC(=O)[C@H](Cc1c[nH]c2ccccc12)NC(=O)[C@H](Cc1c[nH]cn1)NC(=O)[C@@H]1CCC(=O)N1 [LEUPROLIDE ACETATE]	1	0	1	0	0	0	0	0	2	0	0	0	0	0	
NC1=NC(=O)C(c2ccccc2)O1 (stereo not drawn) [PEMOLINE]	0	1	0	0	0	0	0	0	2	0	0	0	0	1	
